Experiments:
[1] = test system: human umbilical arterial endothelial cells (HUAEC); assay: cGMP expression by colorimetric ELISA in HUAEC; type: cell-based; conditions: 24 hours; for cGMP expression, change vs control: agent alone, IBMX 0.4 mM; for cGMP expression, change vs control / reduction of cGMP expression compared to COMP-4 incubation alone: L-NIL 2 μM; for reduction of cGMP expression compared to COMP-4 incubation alone: inhibitor co-incubated with COMP-4 0.69 mg/ml
Method: Cells were then scraped, homogenized by pipetting, and centrifuged at 1,000 g for 10 minutes. […] The enzymatic reaction product was determined by spectrophotometry at 405 nm absorbance and expressed as pmol/mg protein.

[2] = test system: human umbilical arterial endothelial cells (HUAEC); assay: Intracellular NO by Muse Nitric Oxide Kit (DAX-J2 Orange); type: cell-based; conditions: L-NAME added to COMP-4, 24 hours
Method: To corroborate the results obtained by flow cytometry, another system for detecting intracellular NO was used, the Muse® Nitric Oxide Kit (cat #MCH100112, Luminex, Austin, TX). HUAEC were seeded at 1.0×10^6 cells/ml in T25 flasks, treated with vehicle, COMP-4 with or without L-NAME, or LPS (positive control), and incubated for 24 hours. Cells were then suspended in assay buffer at 10^6 cells/ml. 100 μL of working solution consisting of the Muse Nitric Oxide Reagent (DAX-J2 Orange) was added to 10 μL of cells in suspension. Samples were incubated for 30 minutes in a 37° C. incubator with 5% CO2. After the incubation, 90 μL of the Muse 7-AAD working solution (dead cell marker) was added to each tube and incubated at room temperature for 5 min, protected from light. Intracellular NO was measured using the Guava® Muse Cell Analyzer, calibrated with negative and positive controls. Generated plots were divided into quadrants of nitric oxide positivity (+or −) and dead cells (+or −). From each plot, the lower-right quadrant of nitric oxide (+) and dead cell marker (−) was used to express intracellular NO results as the percent positive NO in live cells, which was compared between different treatments.

Row | SMILES | cGMP expression, change vs control [1] | reduction of cGMP expression compared to COMP-4 incubation alone ([1]; L-NAME 3 μM) | reduction of cGMP expression ([1]; inhibitor alone, L-NAME 3 μM, vs control) | reduction of DAX-J2 Orange live cells compared to COMP-4 alone [2]
1 | CC(=N)NCCCC[C@H](N)C(=O)O.Cl [L-NIL, N^6-(1-Iminoethyl)-lysine, hydrochloride] | no inhibition of cGMP expression | 44% | – | –
2 | CC(C)Cn1c(=O)n(C)c(=O)c2[nH]cnc21 [IBMX, 3-isobutyl-1-methylxanthine] | increase in cGMP expression | – | – | –
3 | COC(=O)[C@@H](N)CCCNC(=N)N[N+](=O)[O-] [L-NAME, L-N^G-Nitro arginine methyl ester] | – | 57% | 40% | 46%
